# Earlier results, collected in patent publication US8889867B2, “Solid forms and process for preparing” (Corcept Therapeutics, Inc., priority 2009, dated 2014).
# How the values were obtained:
# [1] = tested on: patients with Cushing's syndrome
# [2] = target: glucocorticoid receptor (GR) (Homo sapiens, UniProt P04150); conditions: Bertagna (1984)
# Chain of glucocorticoid receptor (GR) (P04150 whole entry): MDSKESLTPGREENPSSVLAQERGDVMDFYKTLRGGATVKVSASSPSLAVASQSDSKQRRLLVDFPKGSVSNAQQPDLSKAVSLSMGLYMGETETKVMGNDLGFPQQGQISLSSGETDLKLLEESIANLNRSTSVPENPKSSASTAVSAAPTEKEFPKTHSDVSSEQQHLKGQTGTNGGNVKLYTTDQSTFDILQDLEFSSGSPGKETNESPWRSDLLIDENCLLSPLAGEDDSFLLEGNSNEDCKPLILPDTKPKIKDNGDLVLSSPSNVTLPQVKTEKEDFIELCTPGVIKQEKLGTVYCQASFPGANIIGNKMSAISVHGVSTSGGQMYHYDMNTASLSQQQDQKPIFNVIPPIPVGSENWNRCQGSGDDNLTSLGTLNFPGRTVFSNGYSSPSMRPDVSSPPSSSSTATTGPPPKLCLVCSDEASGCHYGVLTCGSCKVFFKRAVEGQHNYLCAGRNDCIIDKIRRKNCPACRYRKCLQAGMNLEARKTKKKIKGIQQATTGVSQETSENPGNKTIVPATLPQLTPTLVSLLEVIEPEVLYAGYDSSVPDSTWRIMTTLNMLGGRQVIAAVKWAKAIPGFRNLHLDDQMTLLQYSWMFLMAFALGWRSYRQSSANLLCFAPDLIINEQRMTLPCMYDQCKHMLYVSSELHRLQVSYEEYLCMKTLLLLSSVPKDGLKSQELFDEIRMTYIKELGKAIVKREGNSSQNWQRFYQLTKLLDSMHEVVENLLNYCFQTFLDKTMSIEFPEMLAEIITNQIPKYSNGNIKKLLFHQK
smiles,measurement,setting,value
CC#C[C@]1(O)CC[C@H]2[C@@H]3CCC4=CC(=O)CCC4=C3[C@@H](c3ccc(N(C)C)cc3)C[C@@]21C [mifepristone],reversal of acute psychosis,"[1]; 400 to 800 mg per day, severe Cushing Syndrome due to adrenal cancers and ectopic ACTH secretion from lung cancer, Van der Lely (1991, 1993)",useful in rapidly reversing acute psychosis
same,"patients' conditions, including psychiatric status","[1]; Cushing's syndrome patients, Chrousos (1989), Sartor (1996)",improved the patients' conditions
same,anti-glucocorticoid effect in humans,[2],effective anti-glucocorticoid agent
